Source: the supplement of paper PMC7023306
± gives the uncertainty stated by the source.

Assay: TIMS collision cross section in N2 (TIMS CCS N2); higher = larger gas-phase ion size
Conditions: drift gas: N2 (99.4% N2, 0.6% O2), calibration: Stow et al. 2017 values for Agilent ESI-L Low Concentration Tune Mix, ionization: negative ESI
Procedure: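 Authentic plant natural product standards (10-50 ppm in 80% methanol) were analysed by UHPLC (BEH C18, 60 °C) coupled to a Bruker timsTOF Pro in negative ESI with N2 drift gas. TIMS collision cross sections were computed from mobility peak apices after calibration with Agilent Tune Mix using Stow et al. reference values. Values are the average of triplicate runs on different days, reported per annotated ion species (deprotonated ion, adducts, dimer, oxidized ion).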

| SMILES | TIMS collision cross section in N2 (ion species: [M-H]-) | TIMS collision cross section in N2 (ion species: [2M-H]-) | further results |
| --- | --- | --- | --- |
| COc1ccc(-c2cc(=O)c3c(O)c(OC)c(O)c(OC)c3o2)cc1 [nevadensin] | 182.82 ± 0.12 Å² |  | TIMS collision cross section in N2 (ion species: [M-H+Na+HCO2H]-): 199.45 ± 0.091 Å² |
| O=c1cc(-c2ccc(O)cc2)oc2cc(O)cc(O)c12 [Apigenin] | 157.47 ± 0.15 Å² | 238.72 ± 0.12 Å² |  |
| C[C@@H]1O[C@@H](OC[C@H]2O[C@@H](Oc3cc(O)c4c(=O)cc(-c5ccc(O)cc5)oc4c3)[C@H](O)[C@@H](O)[C@@H]2O)[C@H](O)[C@H](O)[C@H]1O [Isorhoifolin] | 231.11 ± 0.1 Å² |  | TIMS collision cross section in N2 (ion species: [M-H+Na+HCO2H]-): 237.1 ± 0.28 Å² |
| COc1cc(OC)c(C(=O)C=Cc2ccc(O)cc2)c(OC)c1 [4-Hydroxy-2',4',6'-trimethoxychalcone (flavokawain A)] | 182.42 ± 0.24 Å² |  |  |
| C[C@@H]1O[C@@H](O[C@H]2[C@H](Oc3cc(O)c4c(c3)O[C@H](c3ccc(O)cc3)CC4=O)O[C@H](CO)[C@@H](O)[C@@H]2O)[C@H](O)[C@H](O)[C@H]1O [Naringin] | 215.92 ± 0.17 Å² |  | TIMS collision cross section in N2 (ion species: [M-H+Na+HCO2H]-): 220.79 ± 0.26 Å² |
| CCCCCCCCCCCCCCCCC(=O)O [Heptadecanoic acid] | 174.45 ± 0.021 Å² | 259.04 ± 0.54 Å² |  |
| CC1(C)[C@@H](O[C@H]2O[C@H](C(=O)O)[C@@H](O)[C@H](O)[C@H]2O[C@@H]2O[C@H](C(=O)O)[C@@H](O)[C@H](O)[C@H]2O)CC[C@]2(C)[C@H]3C(=O)C=C4[C@@H]5C[C@@](C)(C(=O)O)CC[C@]5(C)CC[C@@]4(C)[C@]3(C)CC[C@@H]12 [Glycyrrhizic acid] | 279.43 ± 0.38 Å² |  |  |
| Oc1cc(O)c2c(c1)OC(c1ccc(O)c(O)c1)C(O)C2 (single isomer, unassigned; (+)) [(+)-Catechin] | 157.43 ± 0.095 Å² |  |  |
| CC(C)=CCC1=C(O)C(O)(CC=C(C)C)C(=O)C(C(=O)C(C)C)=C1O (configuration not stated) [Cohumulone] | 184.13 ± 0.17 Å² |  |  |
| O=c1cc(-c2cccc(O)c2)oc2ccccc12 [3'-Hydroxyflavone] | 154.89 ± 0.41 Å² | 218.5 ± 0.57 Å² |  |
| O=C(/C=C/c1ccc(O)c(O)c1)O[C@@H]1C[C@](O)(C(=O)O)C[C@@H](O)[C@H]1O [Chlorogenic acid] |  |  | TIMS collision cross section in N2 (ion species: [M-3H]-): 187.02 ± 0.44 Å² |
| O=C1c2ccc(O)cc2O[C@H](c2ccc(O)c(O)c2)[C@H]1O [3,7,3',4'-Tetrahydroxyflavanone (fustin)] | 154.57 ± 0.12 Å² |  | TIMS collision cross section in N2 (ion species: [M-3H]-): 160.22 ± 0.11 Å² |
| C[C@H]1[C@H](C)CC[C@]2(C(=O)O)CC[C@]3(C)C(=CC[C@@H]4[C@@]5(C)C[C@@H](O)[C@@H](O)[C@](C)(CO)[C@@H]5CC[C@]43C)[C@H]12 [Pygenic acid B] | 225.46 ± 0.32 Å² |  |  |
| COc1cc([C@@H]2CC(=O)c3c(O)cc(O)cc3O2)ccc1O [Homoeriodictyol] | 168.62 ± 0.075 Å² |  | TIMS collision cross section in N2 (ion species: [M-H+Na+HCO2H]-): 188.05 ± 0.04 Å² |
| CC(C)=CCc1c(O)cc(O)c2c1O[C@H](c1ccc(O)cc1)CC2=O [8-prenylnaringenin] | 183.54 ± 0.32 Å² |  |  |
| C[C@@H]1O[C@@H](Oc2c(-c3ccc(O)c(O)c3)oc3cc(O)cc(O)c3c2=O)[C@H](O)[C@H](O)[C@H]1O [Quercitrin] | 195.84 ± 0.038 Å² |  | TIMS collision cross section in N2 (ion species: [M-H+Na+HCO2H]-): 205.52 ± 0.42 Å² |
| COc1ccc(C2CC(=O)c3c(ccc(O)c3O)O2)cc1OC (configuration not stated) [5,6-dihydroxy-3',4'-dimethoxy-flavanone] | 176.56 ± 0.17 Å² |  | TIMS collision cross section in N2 (ion species: [M-3H]-): 179.11 ± 0.078 Å²; TIMS collision cross section in N2 (ion species: [M-H+Na+HCO2H]-): 192.04 ± 0.13 Å² |
| CC1(C)CC[C@]2(C(=O)O)CC[C@]3(C)C(=CC[C@@H]4[C@@]5(C)C[C@H](O)[C@H](O)[C@@](C)(C(=O)O)[C@@H]5CC[C@]43C)[C@@H]2C1 [medicagenic acid] | 226.23 ± 0.27 Å² |  | TIMS collision cross section in N2 (ion species: [M-H+Na+HCO2H]-): 243.47 ± 0.081 Å² |
| COc1cc([C@@H]2Oc3c(O)cc([C@H]4Oc5cc(O)cc(O)c5C(=O)[C@@H]4O)cc3[C@H]2CO)ccc1O [silychristin] | 201.63 ± 0.24 Å² |  |  |
| CC1(C)CC[C@]2(C(=O)O)CC[C@]3(C)C(=CC[C@@H]4[C@@]5(C)CC[C@H](O[C@@H]6OC[C@H](O)[C@H](O)[C@H]6O[C@@H]6O[C@H](CO)[C@@H](O)[C@H](O)[C@H]6O)[C@@](C)(CO)[C@@H]5CC[C@]43C)[C@@H]2C1 [Cauloside C] |  |  | TIMS collision cross section in N2 (ion species: [M-H+HCO2H]-): 289.87 ± 0.76 Å² |
| O=c1cc(-c2ccc(O)c(O)c2)oc2cc(O)cc(O)c12 [Luteolin] | 160.69 ± 0.18 Å² | 234.87 ± 0.19 Å² |  |
| COc1ccc(-c2cc(=O)c3ccc(O)cc3o2)cc1 [Pratol] |  | 234 ± 0.056 Å² |  |
| CC(C)=CCC1C(=O)C(C(=O)CC(C)C)=C(O)C(O)(CC=C(C)C)C1=O (configuration not stated) [Humulone] | 188.57 ± 0.35 Å² |  |  |

| SMILES | TIMS collision cross section in N2 (ion species: [M-H]-) | TIMS collision cross section in N2 (ion species: [2M-H]-) | further results |
| --- | --- | --- | --- |
| CC(C)=CCc1c(O)c(CC=C(C)C)c2c(c1O)C(=O)C[C@@H](c1ccc(O)cc1)O2 [6,8-diprenylnaringenin] | 206.73 ± 0.66 Å² |  |  |
| CC(C)=CCC(=O)C1(O)C(O)=C(C(=O)CC(C)C)C(=O)C1CC=C(C)C (configuration not stated) [Isohumulone] | 187.14 ± 0.21 Å² |  |  |
| COc1ccc(-c2coc3cc(O)ccc3c2=O)cc1 [Formononetin] | 163.76 ± 0.32 Å² | 257.46 ± 0.31 Å² |  |
| COc1ccc(-c2cc(=O)c3c(O)cc(O)cc3o2)cc1O [Diosmetin] | 171.28 ± 0.2 Å² |  |  |
| COc1ccc([C@@H]2CC(=O)c3c(O)cc(O)cc3O2)cc1O [Hesperetin] | 172.79 ± 0.23 Å² | 219.76 ± 0.28 Å² |  |
| COc1ccccc1-c1cc(=O)c2c(O)cc(O)cc2o1 [5,7-Dihydroxy-2'-methoxyflavone] | 167.34 ± 0.07 Å² | 238.49 ± 0.23 Å² |  |
| COc1ccc(-c2cc(=O)c3c(O)cc(O)cc3o2)cc1 [5,7-Dihydroxy-4'-methoxyflavone] | 170.87 ± 0.1 Å² |  | TIMS collision cross section in N2 (ion species: [M-3H]-): 165.19 ± 0.13 Å² |
| O=c1c(O[C@@H]2O[C@H](CO)[C@@H](O)[C@H](O)[C@H]2O)c(-c2ccc(O)cc2)oc2cc(O)cc(O)c12 [kaempferol-3-O-glucoside] | 200.44 ± 0.33 Å² | 279.93 ± 1.2 Å² | TIMS collision cross section in N2 (ion species: [M-H+Na+HCO2H]-): 222.09 ± 0.65 Å² |
| COc1ccc2c(c1)OC(c1ccccc1)CC2=O (configuration not stated) [7-Methoxyflavanone] | 163.71 ± 0.025 Å² |  |  |
| O=c1cc(-c2ccc(O)cc2)oc2cc(O)c(O)c(O)c12 [Scutellarein] | 159.52 ± 0.35 Å² |  | TIMS collision cross section in N2 (ion species: [M-3H]-): 156.37 ± 0.57 Å² |
| CC1(C)C[C@H]2C3=CC[C@@H]4[C@@]5(C)CC[C@H](O)[C@](C)(CO)[C@@H]5CC[C@@]4(C)[C@]3(C)CC[C@@]2(C)[C@H](O)[C@@H]1O [soyasapogenol A] |  |  | TIMS collision cross section in N2 (ion species: [M-H+HCO2H]-): 224.66 ± 0.27 Å² |
| COc1ccc(O)c2c1C(=O)CC(c1ccccc1)O2 (configuration not stated) [8-Hydroxy-5-methoxyflavanone] | 165.83 ± 0.053 Å² |  |  |
| CC(C)=CCc1c(O)cc2c(c1O)C(=O)C[C@@H](c1ccc(O)cc1)O2 [6-prenylnaringenin] | 183.64 ± 0.61 Å² | 235.03 ± 0.42 Å² |  |
| O=c1cc(-c2ccccc2)oc2cc(O)cc(O)c12 [Chrysin] | 156.14 ± 0.1 Å² | 230.51 ± 0.25 Å² |  |
| CC(C)=CCC/C(C)=C/Cc1c(O)cc2c(c1O)C(=O)C[C@@H](c1ccc(O)cc1)O2 [6-geranylnaringenin] | 204.76 ± 0.16 Å² | 275.87 ± 0.17 Å² |  |
| C[C@H]1[C@H](C)CC[C@]2(C(=O)O)CC[C@]3(C)C(=CC[C@@H]4[C@@]5(C)CC[C@H](O)C(C)(C)[C@@H]5CC[C@]43C)[C@H]12 [Ursolic acid] | 218.03 ± 0.74 Å² |  | TIMS collision cross section in N2 (ion species: [M-H+Na+HCO2H]-): 229.46 ± 0.98 Å² |
| Oc1ccc2c(c1)O[C@H]1c3ccc(O)cc3OC[C@@H]21 [Demethyl medicarpin] | 161.89 ± 0.17 Å² |  |  |
| COc1cc(O)c2c(=O)cc(-c3cc(OC)c(OC)c(OC)c3)oc2c1 [Corymbosin] | 190.83 ± 0.34 Å² |  |  |
| O=C(/C=C/c1ccc(O)cc1)OC[C@H]1O[C@@H](Oc2c(-c3ccc(O)cc3)oc3cc(O)cc(O)c3c2=O)[C@H](O)[C@@H](O)[C@@H]1O [Tiliroside] | 217.09 ± 0.061 Å² |  |  |
| O=C(/C=C/c1ccccc1)c1ccc(O)cc1O [2',4'-Dihydroxychalcone] | 158.57 ± 0.14 Å² |  |  |
| O=c1cc(-c2ccccc2)oc2ccc(O)cc12 [6-Hydroxyflavone] | 155.92 ± 0.15 Å² | 239.79 ± 0.056 Å² |  |
| COc1cc(OC)c2c(c1)OC(c1ccc(O)cc1)CC2=O (configuration not stated) [5,7-DIMETHOXY-4'-HYDROXYFLAVANONE] | 174.1 ± 0.31 Å² |  |  |
| COc1ccc2c(=O)cc(-c3ccc(O)cc3)oc2c1 [7-Methoxy-4'-hydroxyflavone] | 164.31 ± 0.31 Å² | 257.82 ± 0.34 Å² |  |
